Target: lymphocyte-specific protein tyrosine kinase (LCK) (Homo sapiens, UniProt P06239)
Experiment: ADP-Glo kinase assay; also fluorescence increase at […] nm on binding LCK after decaging of 3e, reversed by TC-S7003
Format: biochemical

Sequence of lymphocyte-specific protein tyrosine kinase (LCK) (P06239 2-509): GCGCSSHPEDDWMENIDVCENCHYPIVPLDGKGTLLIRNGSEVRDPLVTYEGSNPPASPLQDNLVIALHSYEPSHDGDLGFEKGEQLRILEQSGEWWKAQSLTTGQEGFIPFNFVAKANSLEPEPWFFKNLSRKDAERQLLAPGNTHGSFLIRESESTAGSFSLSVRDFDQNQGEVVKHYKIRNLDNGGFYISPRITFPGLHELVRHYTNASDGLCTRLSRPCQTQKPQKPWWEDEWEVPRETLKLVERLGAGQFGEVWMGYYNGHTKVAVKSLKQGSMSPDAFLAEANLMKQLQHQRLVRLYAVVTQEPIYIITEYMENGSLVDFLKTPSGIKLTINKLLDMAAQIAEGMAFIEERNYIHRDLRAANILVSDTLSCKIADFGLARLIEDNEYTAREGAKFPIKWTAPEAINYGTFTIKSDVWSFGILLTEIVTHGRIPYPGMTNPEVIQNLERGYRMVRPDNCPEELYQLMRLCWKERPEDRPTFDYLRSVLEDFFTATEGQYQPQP

CC(C)n1nc(C#Cc2ccc3cc(N(C)C)ccc3c2)c2c(N)ncnc21 [compound 1, LCK inhibitor 1]
IC50: 2.4 µM

Source: publication PMC11077529, “All-photonic kinase inhibitors: light-controlled release-and-report inhibition” (Chemical Science, 2024)
